Where two headings read alike, the source gives them in different places.
Tests used:
[1] = biological target: T1, 5-HT2A receptor (Rattus norvegicus, UniProt P14842); test: cell-based
T1 construct: Eight strips of tissue (0.5 cm long) were cut. and were mounted in 10 ml organ baths; tissue Charles River Laboratories; host or cells: rat aorta strips, endothelium removed
In short: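 Agonist EC50 and antagonist pKB or pA2 values come from curves fitted by Parker–Waud and from EC50 concentration-ratios with versus without antagonist. Tissue: rat aorta strips, endothelium removed, 37° C Krebs pH 7.4 with 95% O2/5% CO2, 2 g tension; response as % of 5-HT maximum.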

[2] = biological target: T2, human D2s dopamine receptors (Homo sapiens, UniProt P14416); test: hD2S receptor radioligand binding ([3H]spiperone); details: for Ki: pKi reported on a scale of 1 through 5
T2 construct: expressed in transfected cells; host or cells: Chinese hamster ovary cells (membranes)
T2 sequence (P14416 1-414 isoform P14416-2): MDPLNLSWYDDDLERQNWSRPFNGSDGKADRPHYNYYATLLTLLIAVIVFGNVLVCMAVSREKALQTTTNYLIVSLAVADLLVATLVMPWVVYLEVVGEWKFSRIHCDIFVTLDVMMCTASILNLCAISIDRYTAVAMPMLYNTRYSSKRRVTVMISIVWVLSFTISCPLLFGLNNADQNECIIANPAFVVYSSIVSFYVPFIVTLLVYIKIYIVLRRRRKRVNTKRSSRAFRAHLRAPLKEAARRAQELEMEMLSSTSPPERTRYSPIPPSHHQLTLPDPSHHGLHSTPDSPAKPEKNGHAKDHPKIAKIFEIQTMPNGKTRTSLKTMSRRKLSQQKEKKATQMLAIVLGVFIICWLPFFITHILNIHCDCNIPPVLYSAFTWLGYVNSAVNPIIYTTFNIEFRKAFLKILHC
In short: (§1)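 Displacement of one fixed radioligand concentration by graded test compound concentrations was measured in receptor-bearing tissue or plasma membrane fractions at equilibrium. Filtration removed displaced radioligand. Concentration-response data, after subtracting nonspecific binding measured with a reference blocker, were used to derive affinity.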

[3] = biological target: T3, human D2L dopamine receptors (Homo sapiens, UniProt P14416); test: hD2L receptor radioligand binding ([3H]spiperone); details: for Ki: pKi reported on a scale of 1 through 5, read-out: D2L (pKi) (converted)
T3 construct: expressed in transfected cells; host or cells: insect Sf9 cells (membranes)
T3 sequence (P14416 whole entry): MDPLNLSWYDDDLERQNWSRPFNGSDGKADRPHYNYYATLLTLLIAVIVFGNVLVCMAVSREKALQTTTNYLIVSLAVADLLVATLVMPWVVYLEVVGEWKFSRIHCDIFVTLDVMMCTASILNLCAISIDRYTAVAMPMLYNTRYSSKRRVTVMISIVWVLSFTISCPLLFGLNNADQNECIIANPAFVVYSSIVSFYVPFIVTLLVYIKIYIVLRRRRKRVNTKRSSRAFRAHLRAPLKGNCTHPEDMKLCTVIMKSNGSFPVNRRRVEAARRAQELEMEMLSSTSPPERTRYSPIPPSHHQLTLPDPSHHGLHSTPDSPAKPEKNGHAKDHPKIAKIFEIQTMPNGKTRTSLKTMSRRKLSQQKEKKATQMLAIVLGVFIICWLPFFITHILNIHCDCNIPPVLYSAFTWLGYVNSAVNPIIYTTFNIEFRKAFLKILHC
In short: as §1

[4] = biological target: T4, human 5HT1A receptors (Homo sapiens, UniProt P08908); test: h5-HT1A receptor radioligand binding ([3H]8OH-DPAT); details: for binding to 5-HT1A: in words; for Ki: pKi reported on a scale of 1 through 5
T4 construct: expressed in transfected cells; host or cells: Chinese hamster ovary cells (membranes)
T4 sequence (P08908 1-422): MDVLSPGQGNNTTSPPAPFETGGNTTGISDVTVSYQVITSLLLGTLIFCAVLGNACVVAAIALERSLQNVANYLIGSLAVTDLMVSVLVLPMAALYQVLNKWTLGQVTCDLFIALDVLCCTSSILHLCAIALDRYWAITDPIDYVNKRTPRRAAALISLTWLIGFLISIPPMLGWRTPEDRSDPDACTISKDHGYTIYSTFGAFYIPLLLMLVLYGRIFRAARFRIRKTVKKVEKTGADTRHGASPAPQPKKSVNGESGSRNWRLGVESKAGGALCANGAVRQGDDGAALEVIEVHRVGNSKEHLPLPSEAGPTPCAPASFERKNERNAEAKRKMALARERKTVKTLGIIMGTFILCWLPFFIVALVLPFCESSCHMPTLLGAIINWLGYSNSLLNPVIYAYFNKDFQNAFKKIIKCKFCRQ
In short: as §1

[5] = biological target: T5, human H1 receptors (Homo sapiens, UniProt P35367); test: hH1 receptor radioligand binding ([3H]Pyrilamine); details: for binding to H1: in words; for Ki: pKi reported on a scale of 1 through 5
T5 construct: expressed in transfected cells; host or cells: Chinese hamster ovary cells (membranes)
T5 sequence (P35367 whole entry): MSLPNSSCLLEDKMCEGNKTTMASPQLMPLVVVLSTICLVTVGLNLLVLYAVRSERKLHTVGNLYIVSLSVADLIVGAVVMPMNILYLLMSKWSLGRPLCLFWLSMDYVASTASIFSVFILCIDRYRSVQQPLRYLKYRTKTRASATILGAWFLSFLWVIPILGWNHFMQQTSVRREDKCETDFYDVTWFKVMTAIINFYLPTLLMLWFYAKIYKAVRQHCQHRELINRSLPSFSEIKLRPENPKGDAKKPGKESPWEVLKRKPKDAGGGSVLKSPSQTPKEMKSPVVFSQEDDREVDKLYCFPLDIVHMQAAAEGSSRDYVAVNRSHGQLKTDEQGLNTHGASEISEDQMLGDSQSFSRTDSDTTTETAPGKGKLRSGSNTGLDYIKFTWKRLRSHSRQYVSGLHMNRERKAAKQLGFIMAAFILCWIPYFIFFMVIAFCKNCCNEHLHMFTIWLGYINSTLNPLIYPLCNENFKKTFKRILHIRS
In short: as §1

[6] = biological target: T6, human M1 receptors (Homo sapiens, UniProt P11229); test: hM1 receptor radioligand binding ([3H]NMS); details: for affinity to M1 receptors: in words; for Ki: pKi reported on a scale of 1 through 5
T6 construct: expressed in transfected cells; host or cells: Chinese hamster ovary cells (membranes)
T6 sequence (P11229 1-460): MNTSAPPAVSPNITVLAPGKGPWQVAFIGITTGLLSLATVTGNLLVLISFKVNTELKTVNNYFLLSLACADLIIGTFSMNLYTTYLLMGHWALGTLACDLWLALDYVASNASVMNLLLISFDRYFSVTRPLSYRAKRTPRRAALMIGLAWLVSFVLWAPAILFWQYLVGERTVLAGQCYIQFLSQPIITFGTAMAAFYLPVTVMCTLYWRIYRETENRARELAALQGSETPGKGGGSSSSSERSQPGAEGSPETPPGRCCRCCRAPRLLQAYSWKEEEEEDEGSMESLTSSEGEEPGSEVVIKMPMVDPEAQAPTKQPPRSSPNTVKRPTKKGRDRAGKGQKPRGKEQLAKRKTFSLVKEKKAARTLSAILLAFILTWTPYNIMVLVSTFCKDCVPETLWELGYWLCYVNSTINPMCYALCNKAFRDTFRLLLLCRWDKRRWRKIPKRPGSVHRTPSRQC
In short: as §1

[7] = read-out: 5HT2A (pKb) (converted)
[8] = relative to clozapine, in words

T1 sequence (P14842 whole entry): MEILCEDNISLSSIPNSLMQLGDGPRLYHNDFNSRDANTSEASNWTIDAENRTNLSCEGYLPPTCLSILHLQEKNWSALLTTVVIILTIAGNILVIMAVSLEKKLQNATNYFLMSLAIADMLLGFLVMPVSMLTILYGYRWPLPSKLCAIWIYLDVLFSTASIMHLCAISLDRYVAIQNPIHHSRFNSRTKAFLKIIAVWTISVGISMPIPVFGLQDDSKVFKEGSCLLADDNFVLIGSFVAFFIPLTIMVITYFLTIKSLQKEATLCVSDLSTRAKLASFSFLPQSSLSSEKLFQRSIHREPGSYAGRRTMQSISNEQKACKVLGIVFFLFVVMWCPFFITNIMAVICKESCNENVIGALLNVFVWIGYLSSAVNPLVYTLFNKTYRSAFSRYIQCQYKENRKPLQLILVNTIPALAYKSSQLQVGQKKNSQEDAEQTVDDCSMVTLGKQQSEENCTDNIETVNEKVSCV

| SMILES | Kb [1, 7] [nM] | affinity for the 5-HT2A receptors, fold lower than Compound K ([1]; relative to Compound K) [fold] | binds to D2S dopamine receptors ([2]; in words) | Ki [2] [nM] | binds to D2L dopamine receptors ([3]; in words) | Ki [3] [nM] | binding to 5-HT1A [4] | Ki [4] [nM] | binding to H1 [5] | Ki [5] [nM] | affinity to M1 receptors [6] | Ki [6] [nM] | Kb ([1]; rat aorta, Schild plot vs 5-HT, read-out: pA2, antagonist for 5-HT2A receptors (converted)) [nM] | IC50 binding affinity for D2S receptors ([2]; in words) | affinity for the D2S receptor compared with clozapine [2, 8] | IC50 binding affinity for D2L receptors ([3]; in words) | affinity for the D2L receptor compared with clozapine [3, 8] | affinity for the 5-HT1A receptors, fold higher than clozapine ([4]; relative to clozapine) [fold] | affinity for the H1 receptors, fold lower than clozapine ([5]; relative to clozapine) [fold] | Kb ([1]; pKb reported on a scale of 1 through 5, read-out: 5HT2A (pKb) (converted)) [nM] |
| --- | --- | --- | --- | --- | --- | --- | --- | --- | --- | --- | --- | --- | --- | --- | --- | --- | --- | --- | --- | --- |
| O=C(O)C[C@H]1CN(C2=Nc3cc(Cl)ccc3Oc3ccccc32)CCN1 [Compound Q, (S,E)-2-(4-(8-chlorodibenzo[b,f][1,4]oxazepin-11-yl)piperazin-2-yl)acetic acid] | 10 to 30.9 | 8 | not | > 10000 | not | > 10000 | bind | 100 to 977 | bind | 100 to 977 | very low affinity | > 10000 |  |  |  |  |  |  |  |  |
| CCOC(=O)C[C@H]1CN(C2=Nc3cc(Cl)ccc3Oc3ccccc32)CCN1 [Compound K, (S,E)-ethyl 2-(4-(8-chlorodibenzo[b,f][1,4]oxazepin-11-yl)piperazin-2-yl)acetate] | 3.16 to 9.77 |  | Binds | 631 to 2450 | Binds | 631 to 2450 | bind | 100 to 977 | bind | 100 to 977 | very low affinity | > 10000 | 3.16 | low micromolar | comparable | low micromolar | comparable | 4 | 69 |  |
| O=C(C[C@H]1CN(C2=Nc3cc(Cl)ccc3Oc3ccccc32)CCN1)O[C@H]1CCOC1 [EQ, (S)-tetrahydrofuran-3-yl 2-((S)-4-((E)-8-chlorodibenzo[b,f][1,4]oxazepin-11-yl)piperazin-2-yl)acetate] | 3.16 to 9.77 |  |  | 631 to 2450 |  |  |  | 10 to 97.7 |  | 10 to 97.7 |  | 5010 to 9770 |  |  |  |  |  |  |  |  |
| CCC(C)OC(=O)C[C@H]1CN(C2=Nc3cc(Cl)ccc3Oc3ccccc32)CCN1C (stereo partly drawn) [DY, sec-butyl 2-((S)-4-((E)-8-chlorodibenzo[b,f][1,4]oxazepin-11-yl)-1-methylpiperazin-2-yl)acetate] | 10 to 30.9 |  |  | 2510 to 9770 |  |  |  | 1000 to 9770 |  | 10 to 97.7 |  | > 10000 |  |  |  |  |  |  |  |  |
| CN1CCN(C2=Nc3cc(Cl)ccc3Oc3ccccc32)C[C@@H]1CC(=O)NCC(F)(F)C(F)(F)F [EU, (S,E)-2-(4-(8-chlorodibenzo[b,f][1,4]oxazepin-11-yl)-1-methylpiperazin-2-yl)-N-(2,2,3,3,3-pentafluoropropyl)acetamide] |  |  |  | 2510 to 9770 |  |  |  | 1000 to 9770 |  | 100 to 977 |  | > 10000 |  |  |  |  |  |  |  | > 100 |
| CC(C)OC(=O)CC1CN(C2=Nc3cc(Cl)ccc3Oc3ccccc32)CCN1 (centres unmarked) [L, (E)-isopropyl 2-(4-(8-chlorodibenzo[b,f][1,4]oxazepin-11-yl)piperazin-2-yl)acetate] | 10 to 30.9 |  |  | 2510 to 9770 |  | 631 to 2450 |  | 100 to 977 |  | 100 to 977 |  | > 10000 |  |  |  |  |  |  |  |  |
| O=C(C[C@H]1CN(C2=Nc3cc(Cl)ccc3Oc3ccccc32)CCN1)OC1CCCC1 [DR, (S,E)-cyclopentyl 2-(4-(8-chlorodibenzo[b,f][1,4]oxazepin-11-yl)piperazin-2-yl)acetate] | 10 to 30.9 |  |  | 631 to 2450 |  | 631 to 2450 |  | 10 to 97.7 |  | 1000 to 9770 |  | 1260 to 2450 |  |  |  |  |  |  |  |  |
| O=C(C[C@H]1CN(C2=Nc3cc(Cl)ccc3Oc3ccccc32)CCN1)OC1CCOCC1 [DV, (S,E)-tetrahydro-2H-pyran-4-yl 2-(4-(8-chlorodibenzo[b,f][1,4]oxazepin-11-yl)piperazin-2-yl)acetate] | 3.16 to 9.77 |  |  | 631 to 2450 |  | 2510 to 9770 |  | 10 to 97.7 |  | 1000 to 9770 |  | > 10000 |  |  |  |  |  |  |  |  |
| CCOC(=O)CC1CN(C2=Nc3cc(Cl)ccc3Oc3ccccc32)CCN1 (centres unmarked) [A, (E)-ethyl 2-(4-(8-chlorodibenzo[b,f][1,4]oxazepin-11-yl)piperazin-2-yl)acetate] | 10 to 30.9 |  |  | 2510 to 9770 |  | 631 to 2450 |  | 100 to 977 |  | 100 to 977 |  | 5010 to 9770 |  |  |  |  |  |  |  |  |
| CCOC(=O)CC1CN(C2=Nc3ccc(F)cc3Oc3ccccc32)CCN1 (centres unmarked) [J, (E)-ethyl 2-(4-(7-fluorodibenzo[b,f][1,4]oxazepin-11-yl)piperazin-2-yl)acetate] | 31.6 to 97.7 |  |  | 2510 to 9770 |  | 2510 to 9770 |  | 100 to 977 |  | 100 to 977 |  | > 10000 |  |  |  |  |  |  |  |  |
| CC(C)OC(=O)CC1CN(C2=Nc3ccc(F)cc3Oc3ccccc32)CCN1 (centres unmarked) [M, (E)-isopropyl 2-(4-(7-fluorodibenzo[b,f][1,4]oxazepin-11-yl)piperazin-2-yl)acetate] | 10 to 30.9 |  |  | > 10000 |  | 2510 to 9770 |  | 100 to 977 |  | 1000 to 9770 |  | > 10000 |  |  |  |  |  |  |  |  |
| CCOC(=O)C[C@H]1CN(C2=Nc3cc(Cl)ccc3Oc3ccccc32)CCN1CCC(C)C [ER, (S,E)-ethyl 2-(4-(8-chlorodibenzo[b,f][1,4]oxazepin-11-yl)-1-isopentylpiperazin-2-yl)acetate] | 31.6 to 97.7 |  |  | 2510 to 9770 |  |  |  | 1000 to 9770 |  | 100 to 977 |  | > 10000 |  |  |  |  |  |  |  |  |

— patent US20120178738A1, “DIBENZO [B,F] [1,4]OXAZAPINE COMPOUNDS” (ARYX THERAPEUTICS, INC., priority 2007, published 2012)
